# In patent US10610515B2, “Composition including indoprofen and use thereof” (Samsung Electronics Co., Ltd., priority 2015, dated 2020):
# Columns and labels:
# mouse = details: cited from earlier work
# C57BL/6 female mice [1] = assay: Immunoblotting of tibialis anterior muscles of mice administered with indoprofen; format: in vivo, mouse; details: 1.5 mg/kg orally twice a day, 2 weeks, 10 week-old mice, vs PBS control (FIG. 3A)
# Procedure: (§1) 10 week-old C57BL/6 female mice were bred at a temperature of 22±2° C., humidity of 55±5%, and a light-dark cycle of 12:12 hours. Mice were orally administered 1.5 mg/kg of indoprofen in 100 μl of PBS twice a day. A control group was orally administered with 100 μl of PBS twice a day. The mice were allowed free access to drinking water. Skeletal muscles were separated from the mice fed with indoprofen for 2 weeks, and subjected to immunoblot analysis.
# C57BL/6 female mice [2] = assay: Observation of lower limb muscles and heart of mice administered with indoprofen; format: in vivo, mouse; details: 1.5 mg/kg orally twice a day
# Procedure: as §1, with “analysis. To evaluate functional consequence of PGC-1α increased by indoprofen treatment of skeletal muscle, lower limb muscles and organs of mice fed with indoprofen for 2 weeks were separated and analyzed.” for “analysis.”
# C57BL/6 female mice [3] = assay: Immunohistochemistry of 2a/2b type muscle fiber in extensor digitorum longus muscles of indoprofen-treated mice; format: in vivo, mouse; details: oral, 2 weeks
# Procedure: 10 week-old C57BL/6 female mice were bred at a temperature of 22±2° C., humidity of 55±5%, and a light-dark cycle of 12:12 hours. Mice were orally administered 1.5 mg/kg of indoprofen in 100 μl of PBS twice a day. A control group was orally administered with 100 μl of PBS twice a day. The mice were allowed free access to drinking water. Skeletal muscles were separated from the mice fed with indoprofen for 2 weeks, and subjected to immunoblot analysis. To examine distribution of 2a type muscle fiber and 2b type muscle fiber, extensor digitorum longus muscles of mice administered with indoprofen for 2 weeks were subjected to immunohistochemistry. 2a type muscle fiber is an oxidative muscle fiber type, and there are two types: aerobic, that is, oxygen-dependent energy source and anaerobic, that is, oxygen-independent energy source. 2b type muscle fiber is a glycolytic muscle fiber type, and includes only anaerobic energy source. Frozen sections stored in a deep freezer of −80° C. were washed with 1×PBS twice, and fixed with 4% paraformaldehyde at room temperature for 15 minutes, and then washed with 1×PBS twice. The tissue and a permeabilization buffer (0.2% Triton-X/PBS) were reacted at room temperature for 30 minutes, and washed with 1×PBS twice. […] After sealing, a fluorescence microscope (Nikon, body: Ti-u, camera: DS-RI1, program: NIS-elements BR 3.1) was used for analysis.
# human PGC-1α promoter = assay: PGC-1α promoter luciferase reporter screening in C2C12-PGC-1α reporter cell line; format: cell-based, mouse; details: 10 μM, 48 hours, C2C12-PGC-1α reporter cells, vs DMSO control
# Procedure: To screen a compound activating PGC-1α gene expression in C2C12 myoblast cells, a PGC-1α reporter-expressing C2C12 cell line (hereinafter, referred to as ‘PGC-1α reporter cell line’ or ‘C2C12-PGC-1α cell line) was established. A vector expressing luciferase and dscGFP (destabilized Green Fluorescent Protein) under a human PGC-1α promoter having a length of 1 kb was prepared, and this vector was inserted into lentivirus to transfect C2C12 cells. To select a cell line that genetically stably expressed the vector, fluorescence emitted from green fluorescent protein (GFP) included in the vector was monitored. 5 μg/ml of puromycin, a selection marker for the vector, was added to a cell culture medium, and a cell line expressing PGC-1α reporter was selected. […] The expression level is measured by luminescence after addition of a luciferase substrate, thereby determining activation or inhibition of PGC-1α transcription by the compound.
# The C2C12-PGC-1α reporter cell line prepared in Section 1 was used to screen a PGC-1α expression regulator from 2320 compounds provided by Korea Chemical Bank. […] 48 hours later, luminescence by luciferase was measured. […] Then, luminescence is measured. The measured values were normalized to each well and plate, and a value measured in a well treated with a solvent of the compound, DMSO, is used as a control group to express the value as a relative ratio.
# C2C12 myoblasts [4] = assay: Immunoblot of PGC-1α, differentiation markers and mitochondrial protein in indoprofen-treated myoblasts; format: cell-based
# Procedure: The effect of indoprofen on the differentiation of C2C12 myoblasts into muscle cells was analyzed. Dulbecco's Modified Eagle Medium (DMEM) supplemented with 15% fetal bovine serum was used as a growth medium for the culture of C2C12 myoblasts, and DMEM supplemented with 2% horse serum was used as a differentiation medium for differentiation into muscle cells. To induce differentiation of C2C12 myoblasts into muscle cells, 10 μM or 100 μM indoprofen dissolved in DMSO was added to the experimental groups, and DMSO alone was added to the control group. The cells were cultured for 48 hours to induce differentiation, and then a RIPA buffer (50 mM Tris-HCl, pH 7.5, 150 mM NaCl, 1% Triton X100, 0.1% SDS, 2 mM EDTA, 0.5% sodium deoxycholate, Proteinase Inhibitor) was added to the harvested cells to allow lysis for 30 minutes, followed by centrifugation at 13,000 rpm for 30 minutes. The amount of protein in the cell lysis sample was quantified and an equal amount of protein was subjected to 7% or 15% SDS-PAGE. The protein was transferred onto a PVDF membrane, and then incubated in a blocking buffer containing 5% skim milk for 1 hour. Primary antibodies specific to individual proteins, diluted in 5% BSA, are reacted with the membrane at 4° C. for 12 hours, and then the membrane was washed with a wash buffer for 5 minutes three times. Secondary antibodies were diluted with the blocking buffer and allowed to react with the membrane at room temperature for 1 hour. Thereafter, the membrane was washed with the wash buffer for 5 minutes three times, and then exposed to X-ray film using an ECL reagent (Roche) to confirm protein expression levels.
# C57BL/6 female mice [5] = assay: SDH and NADPH staining of extensor digitorum longus muscle of indoprofen-administered mice; format: in vivo, mouse; details: oral, 2 weeks, 10 week-old mice
# Procedure: 10 week-old C57BL/6 female mice were bred at a temperature of 22±2° C., humidity of 55±5%, and a light-dark cycle of 12:12 hours. Mice were orally administered 1.5 mg/kg of indoprofen in 100 μl of PBS twice a day. A control group was orally administered with 100 μl of PBS twice a day. The mice were allowed free access to drinking water. Skeletal muscles were separated from the mice fed with indoprofen for 2 weeks, and subjected to immunoblot analysis. Staining of succinic dehydrogenase (SDH) and NADPH in the extensor digitorum longus muscle of a mouse administered with indoprofen for 2 weeks was performed. This staining method is a method of analyzing mitochondrial activity by measuring activities of SDH and NADPH which are enzymes involved in the electron transport chain of mitochondria. Staining degree of SDH and NADPH represents a content of oxidative muscle fiber. Immediately after separation, extensor digitorum longus muscles were fixed in OCT compound and frozen using liquid nitrogen, and then sectioned to a thickness of 7 μm with a cryo-cut freezing microtome. After SDH staining, the frozen tissue sections were reacted in 0.2 M phosphate buffer (pH 7.4) containing SDH at 37° C. for 10 minutes, washed with distilled water, and then sealed, followed by observation. […]
# 25-month-old female mice [6] = assay: SDH and NADPH staining of extensor digitorum longus muscle of indoprofen-administered old mice; format: in vivo, mouse; details: old (25-month-old) mice, oral in corn oil, 4 weeks
# Procedure: Immediately after separation, extensor digitorum longus muscles were fixed in OCT compound and frozen using liquid nitrogen, and then sectioned to a thickness of 7 μm with a cryo-cut freezing microtome. After SDH staining, the frozen tissue sections were reacted in 0.2 M phosphate buffer (pH 7.4) containing SDH at 37° C. for 10 minutes, washed with distilled water, and then sealed, followed by observation. For NADPH staining, the frozen tissue sections were reacted in 3.5 mM phosphate buffer (pH 7.4) containing 0.9 mM NADH, and 1.5 mM nitro blue tetrazolium at 37° C. for 30 minutes, washed with distilled water, and then sealed, followed by observation.
# 25-month-old female mice (weighing 30 g) were orally administered with indoprofen mixed with corn oil as an experimental group or corn oil only as a control group for 4 weeks. […] Staining of SDH and NADPH in extensor digitorum longus muscles of the old mice orally administered with indoprofen for 4 weeks was performed in the same manner as in 4 of Example 3.
# 25-month-old female mice [7] = assay: Weighing lower limb muscles of old mice administered with indoprofen; format: in vivo, mouse; details: old (25-month-old) mice, fed 4 weeks (FIG. 4C)
# Text: To analyze changes in the muscle weight of old mouse by administration of indoprofen, lower limb muscles were separated from 25-month-old female mice (weighing 30 g) fed with indoprofen for 4 weeks.
# C2C12 myoblasts [8] = assay: Differentiation of indoprofen-treated myoblasts (MHC antibody fluorescence staining, DAPI); format: cell-based; details: 10 μM or 100 μM, differentiation 3 days, vs DMSO control (FIG. 2)
# Procedure: C2C12 myoblasts were treated with 10 μM or 100 μM indoprofen and allowed to differentiate for 3 days. A control group was treated with DMSO alone. Fluorescence staining of C2C12 myotubes was performed using MHC antibody. The number of nuclei within one myotube was counted by DAPI staining. C2C12 cells were differentiated in DMED supplemented with 2% horse serum for 72 hours. The cells were washed with 1×PBS, and then fixed in 4% paraformaldehyde at room temperature for 15 minutes, followed by washing with 1×PBS three times. The cells were reacted with a permeabilizing buffer supplemented with 0.2% Triton-X for 10 minutes, and then washed with 1×PBS three times, followed by blocking using 5% fetal bovine serum at room temperature for 1 hour. A primary antibody, anti-MHC, was diluted with 5% goat serum at a ratio of 1:500 and allowed to react at 4° C. for 12 hours, followed by washing with 1×PBS three times. A secondary antibody, anti-mouse IgG-HRP 594 (Invitrogen) was diluted with 5% goat serum at a ratio of 1:500 and allowed to react at 4° C. for 1 hour, followed by washing with 1×PBS three times. DAPI is diluted with 1×PBS at a ratio of 1:10000 and allowed to react for 1 minute, followed by washing with 1×PBS and fluorescence microscopy.
# [9] = 10 μM or 100 μM, 48 hours differentiation, Western blot, vs DMSO control (FIG. 1)
structure (smiles),measurement,setting,value
CC(=O)Oc1ccccc1C(=O)O [aspirin],ID50,mouse; for reference,250 mg/kg
"CC(C(=O)O)c1ccc(N2Cc3ccccc3C2=O)cc1 (stereo not shown) [indoprofen, 2-[4-(1-oxo-1,3-dihydro-2H-isoindol-2-yl)phenyl]propionic acid]",lethal dose (LD)-50 for 50% mouse mortality,mouse; mouse,700 mg per mouse body weight (kg)
same,expression of PGC-1α in tibialis anterior muscle,C57BL/6 female mice [1],increased
same,expression of myoglobin in tibialis anterior muscle,C57BL/6 female mice [1],increased
same,heart size,C57BL/6 female mice [2]; 2 weeks (FIG. 3B (C)),no change
same,appearance of quadriceps muscle and gastrocnemius muscle (white vs red muscle),"C57BL/6 female mice [2]; 2 weeks, vs control group (FIG. 3B)",converted to red muscles
same,number of oxidative 2a type muscle fiber in extensor digitorum longus muscle,"C57BL/6 female mice [3]; anti-Myh2a antibody, vs non-treated control (FIG. 3C)",increased
same,number of glycolytic 2b type muscle fiber in extensor digitorum longus muscle,"C57BL/6 female mice [3]; anti-Myh2b antibody, vs non-treated control (FIG. 3D)",decreased
same,"PGC-1α promoter activity (luciferase luminescence, relative ratio to DMSO control)",human PGC-1α promoter,greatly increased
same,expression of PGC-1α,C2C12 myoblasts [4]; [9],greatly increased
same,expression of mitochondrial protein cytochrome C,C2C12 myoblasts [4]; [9],greatly increased
same,expression of muscle differentiation marker MHC,C2C12 myoblasts [4]; [9],greatly increased
same,expression of muscle differentiation marker myogenin,C2C12 myoblasts [4]; [9],greatly increased
same,expression of myoglobin,C2C12 myoblasts [4]; [9],greatly increased
same,concentration of optimal activity,"C2C12 myoblasts [4]; C2C12 myoblasts, protein expression (FIG. 1)",100 µM
same,percentage of muscle fiber having increased SDH activity in extensor digitorum longus muscle,C57BL/6 female mice [5]; vs control group (FIG. 3E),increased
same,percentage of muscle fiber having increased NADPH activity in extensor digitorum longus muscle,C57BL/6 female mice [5]; vs control group (FIG. 3F),increased
same,percentage of muscle fiber having increased SDH activity in extensor digitorum longus muscle,25-month-old female mice [6]; vs corn oil control (FIG. 4A),increased
same,percentage of muscle fiber having increased NADPH activity in extensor digitorum longus muscle,25-month-old female mice [6]; vs corn oil control (FIG. 4B),increased
same,"weight of lower limb muscle (Sol, Gas, EDL, TA)",25-month-old female mice [7],increases
same,myotube formation and fusion of myoblasts,C2C12 myoblasts [8],increased
same,percentage of the nuclei labeled with MHC antibody,C2C12 myoblasts [8],significantly increased
